{
  "source": "patent US20240050409A1",
  "about": "“Methods and Compositions for Treating Psychotic Disorders” (SOUND PHARMACEUTICALS INCORPORATED, priority 2014, published 2024)",
  "key": {"[1]": {"test_system": "NVHL rats", "test": "Prepulse inhibition of the acoustic startle response (PPI) in NVHL rats", "type": "in vivo, Sprague-Dawley rats", "conditions": "adult NVHL rats", "experimental": "To assess whether juvenile oxidative stress leads to behavioral deficits, a behavioral paradigm was used for testing in both animal models and schizophrenia patients. Prepulse inhibition of the acoustic startle response (PPI) is a measure of sensorimotor gating that is reduced in patients (Geyer and Braff, 1987) and NVHL rats (Lipska et al., 1995). PPI was tested in adult sham (n=11), NAC-treated sham (n=12), NVHL (n=9), and NAC-treated NVHL rats (n=17). In addition to loss of PVI maturation and electrophysiological anomalies, developmental oxidative stress in juvenile NVHL rats can cause schizophrenia-relevant adult behavioral deficits.\nThe beneficial effect of NAC treatment includes a large postnatal treatment that starts prior to the lesion and stops once rats become young adults. For full translational value one determines whether NAC is efficacious when started at an age that corresponds to the time when prodromal stages can be identified in humans. In another set of rats, NAC was administered in the drinking water starting at P35, an age that in rats is equivalent to early adolescence. For PPI deficits was tested in adult SHAM (n=15), untreated NVHL (n=12), and NAC-treated NVHL rats (n=14).\nEbselen is a glutathione peroxidase (GPx) mimic (Muller et al., 1984) that induces GPx expression (Kil et al., 2007) and enhances GSH levels in neurons, replenishing GSH depleted by neurotoxic mechanisms (Pawlas and Malecki, 2007). PPI was tested in adult vehicle-treated SHAM (n=10), Ebselen-treated SHAM (n=7), vehicle-treated NVHL (n=8), and Ebselen-treated NVHL rats (n=9), and Ebselen treatment during adolescence reversed PPI deficits in NVHL rats (as shown in FIG. 15D).\nIn another group of rats, the effects of the NADPH oxidase inhibitor Apocynin was assessed while delivering through juvenile and adolescent stages. PPI was tested in adult vehicle-treated SHAM (n=10), apocynin-treated SHAM (n=11), vehicle treated NHVL (n=7), and apocynin-treated NVHL (n=5). As illustrated in FIG. 15C a reversal of PPI deficits was observed.\nAntioxidant pretreatment regimen: NAC (BioAdvantexPharma, Mississauga, Ontario, Canada) was administered in the drinking water at 900 mg/l. NAC treatment started at P5 or at P35, and previous work in mice has shown that NAC consumed by the dam is transmitted to the pups through her milk (das Neves Duarte et al., 2012). NAC treatment ended at P50. Fresh solutions were prepared every 2-3 days. Ebselen (Sound Pharmaceuticals Inc., Seattle, WA) was administered i.p. 5 days a week starting at P35 until the day of PPI testing (P60). Stock ebselen solution (20 mg/ml DMSO, frozen aliquots) was diluted 1:5 in sterile water and administered at a dose of 10 mg/kg. Control animals received an equivalent concentration of DMSO diluted 1:5 in water. Apocynin (Sigma-Aldrich, St. Louis, MO) was administered in the drinking water at a target dose of 100 mg/kg (Nwokocha et al., 2013). Prior to weaning at P21, drinking water contained a dose of 2 g apocynin per 0.5 1 of water, to ensure delivery through the dam's milk. Apocynin concentration was lowered after weaning to 750 mg/1 to best approximate the target dose. Treatment lasted from P5 to P50 with fresh solutions prepared every other day.\nPrepulse inhibition: Starting at P60, both male and female rats were tested for PPI, as described previously (Feleder et al., 2010). As PPI deficits in NVHL rats are most evident when rats are challenged with apomorphine (Lipska et al., 1995), we injected apomorphine (0.1 mg/kg, i.p.) immediately prior to the PPI test session. Rats were placed in a sound- attenuated startle chamber (San Diego Instruments, San Diego, CA) with a 70 dB background white noise. After a 5 min adaptation period, the PPI test was initiated with pseudorandom trials every 15 to 25 seconds. Either pulse (120 dB), prepulse (75 dB, 80 dB, or 85 dB), no pulse or prepulse +pulse were delivered. […]"}, "[2]": {"test": "Solubility of ebselen in aqueous solutions", "type": "physicochemical", "conditions": "25° Celsius", "experimental": "Ebselen is the only active ingredient administered in a formulation. […] Ebselen acts as a catalyst and is not consumed during detoxification reactions (Muller et. al, 1988). An embodiment of an ebselen formulation is >99% pure as confirmed by HPLC. The synthesis of this formulation is provided by Rhodia Pharma Solutions and includes capsules that are hermetically sealed in blister packs. Each capsule contains 200 mg the ebselen formulation or SPI-1000 (placebo)."}, "[3]": {"test": "Ph-1 placebo-controlled, randomized, single ascending dose study: pharmacokinetics", "type": "in vivo", "conditions": "humans, single dose 200 mg to 1600 mg", "experimental": "(§1) Ebselen has excellent oral availability (Fisher et al., 1988). Brain level was about 20% of the plasma level (Imai, et al., 2001, Ullrich, et al., 1996). […] A Ph-1 study was conducted in 32 humans in a placebo-controlled, randomized, single ascending dose design. Ebselen ranged from 200 mg to 1600 mg in the formulation. (1) Pharmacokinetics: The PK parameters of ebselen and its three metabolites were published (Lynch, et al., 2009). […] The tabulated side effects were published in Lynch, et al., 2009."}, "[4]": {"test_system": "healthy males and females", "test": "Ph-1 placebo-controlled, randomized, single ascending dose study: safety", "type": "in vivo, humans", "experimental": "as §1"}, "[5]": {"test": "Repeat dosing 28-day study, monkey", "conditions": "cynomolgus monkey, in vivo, Cynomolgus monkeys, read-out: no-observable-effect-level (NOAEL)", "experimental": "(§2) Seven acute and repeated dose toxicology studies were conducted in Sprague-Dawley rats, Sinclair miniature swine, and Cynomolgus monkey, and three genotoxicology studies."}, "[6]": {"test": "Repeat dosing 28-day study, mini-pig", "parameters": "species or system Sinclair miniature swine", "conditions": "Sinclair, minipig, in vivo, read-out: no-observable-effect-level (NOAEL)", "experimental": "as §2"}, "[7]": {"test_system": "rats", "test": "Repeat dosing 28-day study, rats", "type": "in vivo, Sprague-Dawley rats", "experimental": "as §2"}, "[8]": {"test_system": "rats", "test": "Chronic toxicity studies 26 and 52 weeks, rats", "type": "in vivo", "experimental": "as §2"}, "[9]": {"test_system": "mini-pigs", "test": "Chronic toxicity studies 26 and 52 weeks, mini-pigs", "type": "in vivo", "experimental": "as §2"}, "[10]": {"conditions": "in vivo; cited from earlier work"}, "[11]": {"conditions": "in vivo; cited from earlier work", "remark": "listed apart in the source"}, "[12]": {"test_system": "neurons", "conditions": "cited from earlier work"}, "[13]": {"test_system": "N-methyl-D-asparatate receptors redox modulatory site", "conditions": "cited from earlier work"}, "[14]": {"conditions": "32 humans, single dose 200 mg to 1600 mg"}},
  "note": "Entries after “also recorded” stand apart in the source; their conditions may differ. Read-outs that look alike come from different tables or passages of the source.",
  "data": [
    {"smiles": "COc1cc(C(C)=O)ccc1O", "note": "[Apocynin]", "values": [
      {"measurement": "effect on PPI deficit", "setting": "[1]; drinking water, target dose 100 mg/kg, P5 to P50, 100 mg/kg", "result": "prevented; also recorded: reversal"},
      {"measurement": "effect on PPI deficit", "setting": "[1]; drinking water, target dose 100 mg/kg, P5 to P50, listed as apocynin, 100 mg/kg", "result": "significant lesion by treatment interaction"}
    ]},
    {"smiles": "O=c1c2ccccc2[se]n1-c1ccccc1", "note": "[Ebselen, 2-Phenyl-1,2-benzisoselenazol-3(2H)-one]", "values": [
      {"measurement": "solubility in aqueous solutions", "setting": "[2]", "result": "slightly soluble"},
      {"measurement": "Cmax", "setting": "[3]; both sexes, human, in vivo, oral, range of means", "result": "30.3 to 83.4", "unit": "ng/mL"},
      {"measurement": "AUC(0-t)", "setting": "[3]; both sexes, human, in vivo, oral, range of means, read-out: mean AUC0-t", "result": "117 to 881", "unit": "ng·h/mL"},
      {"measurement": "half-life", "setting": "[3]; both sexes, human, in vivo, oral, range of means, read-out: mean t1/2", "result": "6.4 to 16.7", "unit": "h"},
      {"measurement": "Tmax", "setting": "[3]; both sexes, human, in vivo, oral, range of medians, read-out: median Tmax", "result": "1.5 to 2.3", "unit": "h"},
      {"measurement": "predominate metabolite", "setting": "[3]", "result": "2-glucuronyl selenobenzanilide"},
      {"measurement": "serious adverse events or discontinuation due to an AE", "setting": "[4]; [14]", "result": "no serious adverse events"},
      {"measurement": "severity of AEs", "setting": "[4]; [14]", "result": "mild or moderate"},
      {"measurement": "trends in clinical laboratory and ECG findings", "setting": "[4]; [14]", "result": "No treatment- or dose-related trends"},
      {"measurement": "safety and tolerability", "setting": "[4]; capsules, single oral dose up to 1600 mg", "result": "safe and well tolerated"},
      {"measurement": "NOAEL at 28 days", "setting": "[5]", "result": 2000, "unit": "mg/kg"},
      {"measurement": "NOAEL at 28 days", "setting": "[6]", "result": "> 2000", "unit": "mg/kg"},
      {"measurement": "no-observable-effect-level (NOAEL)", "setting": "[7]", "result": "not identified"},
      {"measurement": "non-toxic effect level", "setting": "[8]", "result": 31.6, "unit": "mg/kg"},
      {"measurement": "non-toxic effect level", "setting": "[9]", "result": 178, "unit": "mg/kg"},
      {"measurement": "effect on PPI deficit", "setting": "[1]; 10 mg/kg i.p. 5 days a week from P35 until PPI testing, 10 mg/kg", "result": "reversed; also recorded: significant lesion status by treatment interaction"},
      {"measurement": "effect on PPI deficit", "setting": "[1]; 10 mg/kg i.p. 5 days a week from P35 until PPI testing, listed as ebselen, 10 mg/kg", "result": "prevented"},
      {"measurement": "oral availability", "setting": "[10]", "result": "excellent"},
      {"measurement": "brain level as share of the plasma level", "setting": "[11]", "result": "about 20%"},
      {"measurement": "GSH levels in neurons (basal and stressed conditions)", "setting": "[12]", "result": "increased"},
      {"measurement": "glutamate-induced GSH depletion", "setting": "[12]; combined with glutamate", "result": "neutralized; also recorded: Neuroprotective effect"},
      {"measurement": "GSH levels in neurons (basal and stressed conditions)", "setting": "[12]; listed as ebselen", "result": "dose-dependently increases; also recorded: dose-dependent rise"},
      {"measurement": "effect on NMDA receptor redox modulatory site", "setting": "[13]", "result": "modulates"},
      {"measurement": "neuron viability", "setting": "[13]", "result": "increases"}
    ]}
  ]
}
